This is an account of results in patent publication US20070173462A1, “Treatment of diseases associated with the use of antibiotics” (Optimer Pharmaceuticals, Inc., priority 2004, published 2007).

What all share (format): cell-based
Experiment [1] deals with C. ramosum. The experiment in a line: microbe, parasite or virus in culture. To be noted: Thomasclavelia ramosa; clinical isolates, n=10.
The test system of experiment [2] is Veillonella sp. The experiment in a line: microbe, parasite or virus in culture. To be noted: clinical gastrointestinal isolates, n=10.
The test system of experiment [3] is C. clostridioforme. Nature of the experiment: organism not typed. Particulars: clinical isolates, n=5.
The subject of experiment [4] is Enterobacter sp. The experiment in a line: microbe, parasite or virus in culture. To be noted: clinical gastrointestinal isolates, n=20.
In experiment [5] the test system is Non-spore forming Gram positive rods. Nature of the experiment: organism not typed. To be noted: clinical gastrointestinal isolates, n=64.
For experiment [6], the system named is Moraxella sp. Nature of the experiment: MIC, ATCC laboratory strains (NCCLS guidelines). Particulars: n=2, in µg/mL. The procedure:
The activity of Compound I was tested against laboratory strains of different species of bacteria using NCCLS antimicrobial susceptibility testing guidelines. […] Including MRSA and Enterococcus sp. Including VRE (Table. 2).

Each structure is given as a SMILES string. Values after ≈ are worked out from the molar mass of the structure shown.

Consider `CCc1c(Cl)c(O)c(Cl)c(O)c1C(=O)O[C@H]1[C@H](O)[C@H](OC)[C@H](OC/C2=C\C=C\C[C@H](O)/C(C)=C/[C@H](CC)C(O[C@@H]3OC(C)(C)[C@@H](OC(=O)C(C)C)[C@H](O)[C@@H]3O)/C(C)=C/C(C)=C/C[C@@H](C(C)O)OC2=O)O[C@@H]1C` (stereo partly shown) [Compound I], for which the MIC50 in experiment [1] is greater than 1020 µg/mL; in experiment [2] (Veillonella), 32 µg/mL (≈ 30.2 µM); in experiment [3], 4 µg/mL (≈ 3.78 µM); in experiment [4] (Enterobacter), greater than 256 µg/mL; in experiment [5], 1 µg/mL (≈ 0.945 µM). The MIC90 in experiment [1] was greater than 1020 µg/mL; in experiment [2] (Veillonella) it was 128 µg/mL (≈ 121 µM); in experiment [3], greater than 1020 µg/mL; in experiment [4] (Enterobacter), greater than 256 µg/mL; in experiment [5], 32 µg/mL (≈ 30.2 µM). The “Range (MIC)” value in experiment [2] was 16 to 128 µg/mL; in experiment [4], greater than 256 µg/mL; in experiment [6], 1-2.
